Results from the Kinase Knowledgebase extract (Sharma et al. 2016).
Values joined by “and” are separate entries in the source; they are usually repeats but may differ in a detail not shown here. Identical values can stand only once.

The compounds below were run against MAPK14 (human) (UniProt Q16539) (assay: Inhibition of MAPK14 Kinase Activity).
Chain of MAPK14 (human) (Q16539 whole entry, looked up): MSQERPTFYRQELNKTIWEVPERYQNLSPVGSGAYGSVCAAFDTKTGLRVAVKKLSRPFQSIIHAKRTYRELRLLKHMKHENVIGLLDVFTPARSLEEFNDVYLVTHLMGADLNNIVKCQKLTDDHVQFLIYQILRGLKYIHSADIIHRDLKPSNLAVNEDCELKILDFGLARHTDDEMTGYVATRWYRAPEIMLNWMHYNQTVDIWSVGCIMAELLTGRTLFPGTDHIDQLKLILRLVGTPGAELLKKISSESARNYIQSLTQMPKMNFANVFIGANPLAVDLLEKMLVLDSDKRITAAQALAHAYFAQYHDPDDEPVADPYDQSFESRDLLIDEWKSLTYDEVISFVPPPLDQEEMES
`CC(C)n1c(N2CCN(C(=O)C(C)(C)N)CC2)nc(OCc2ccc(F)cc2F)c(Br)c1=O` was tested, and the IC50 was 531 nM and the Ki was 222 nM.
In the case of `CC(C)n1c(NCCNC(=O)CO)nc(OCc2ccc(F)cc2F)c(Cl)c1=O`, the IC50 is reported as 22.1 nM and the Ki is reported as 10.2 nM.
`CC(C)n1c(-c2ccccc2)nc(OCc2ccc(F)cc2F)c(Br)c1=O` gave an IC50 of 112 nM and a Ki of 59.1 nM.
With `CC(C)n1c(N2CC[C@@H](NC(=O)C(C)(C)O)C2)nc(OCc2ccc(F)cc2F)c(Cl)c1=O` the IC50 was 484 nM and the Ki was 310 nM.
Work on `CC(C)n1c(OCCNS(C)(=O)=O)nc(OCc2ccc(F)cc2F)c(Cl)c1=O` yielded an IC50 of 26.3 nM and a Ki of 15.5 nM.
For `C=CCCc1nc(OCc2ccc(F)cc2F)c(Cl)c(=O)n1C(C)C`, the IC50 was 164 nM and the Ki was 79.9 nM.
Work on `CC(C)n1c(NC[C@@H](O)CO)nc(OCc2ccc(F)cc2F)c(Br)c1=O` yielded an IC50 of 21.6 nM and a Ki of 11.1 nM.
For `CC(C)n1c(N(C)CC(N)=O)nc(OCc2ccc(F)cc2F)c(Cl)c1=O`, the IC50 was 1680 nM and the Ki was 774 nM.
In the case of `CC(C)n1c(CCCCO)nc(OCc2ccc(F)cc2F)c(Br)c1=O`, the IC50 is reported as 239 nM and the Ki is reported as 114 nM.
`CC(C)n1c(N2CCC[C@@H]2CO)nc(OCc2ccc(F)cc2F)c(Br)c1=O` gave an IC50 of 29.8 nM and a Ki of 15.7 nM.
Compound `CCNC(=O)NCc1cc(F)ccc1COc1nc(C)n(C(C)C)c(=O)c1Br` has an IC50 of 129 nM and a Ki of 62.1 nM.
`CC(C)n1c(N2CCC(NC(=O)CN)C2)nc(OCc2ccc(F)cc2F)c(Br)c1=O` (stereo not drawn) gave an IC50 of 217 nM and a Ki of 118 nM.
With `CC(C)n1c(NC[C@H](O)CO)nc(OCc2ccc(F)cc2F)c(Br)c1=O` the IC50 was 18.3 nM and the Ki was 9.05 nM.
`CC(C)n1c(N[C@@H](C)C(N)=O)nc(OCc2ccc(F)cc2F)c(Br)c1=O` showed an IC50 of 4.6 nM and a Ki of 1.73 nM.
For `CC(C)n1c(-c2cccc(C(N)=O)c2)nc(OCc2ccc(F)cc2F)c(Br)c1=O`, the IC50 was 608 nM and the Ki was 378 nM.
With `CC(C)n1c(OCCCCO)nc(OCc2ccc(F)cc2F)c(Cl)c1=O` the IC50 was 139 nM and the Ki was 68.5 nM.
`CC(C)n1c(NCCNC(=O)CO)nc(OCc2ccc(F)cc2F)c(Br)c1=O` showed an IC50 of 14.2 nM and a Ki of 6.58 nM.
`CC(C)n1c(N2CC[C@H](NC(=O)CO)C2)nc(OCc2ccc(F)cc2F)c(Cl)c1=O` showed an IC50 of 813 nM and a Ki of 522 nM.
With `CC(C)n1c(NCCC(N)=O)nc(OCc2ccc(F)cc2F)c(Br)c1=O` the IC50 was 12.8 nM and 14.2 nM and the Ki was 6.86 nM and 6.37 nM.
`CC(C)n1c(NCCCNC(=O)CO)nc(OCc2ccc(F)cc2F)c(Br)c1=O` showed an IC50 of 12.5 nM and a Ki of 5.95 nM.
Compound `CC(=O)N[C@H]1CCN(c2nc(OCc3ccc(F)cc3F)c(Cl)c(=O)n2C(C)C)C1` has an IC50 of 703 nM and a Ki of 451 nM.
Work on `CC(C)n1c(N2CC[C@@H](NC(=O)OCc3cccnc3)C2)nc(OCc2ccc(F)cc2F)c(Br)c1=O` yielded an IC50 of 810 nM and a Ki of 476 nM.
Compound `CC(C)n1cnc(OCc2ccc(F)cc2F)c(Cl)c1=O` has an IC50 of 296 nM and a Ki of 148 nM.
`Cc1nc(OCc2ccc(F)cc2CNC(=O)NC2CCCCC2)c(Br)c(=O)n1C(C)C` showed an IC50 of 786 nM and a Ki of 372 nM.
